Experimental data from patent US9242970B2 (ACTELION PHARMACEUTICALS LTD., priority 2010, dated 2016).

Assays:
human orexin-1 receptor = human orexin-1 receptor (Homo sapiens (Human), UniProt O43613); test: In vitro assay: intracellular calcium measurements (FLIPR), antagonistic activity; format: cell-based; conditions: CHO cells, 3 nM orexin-A, compound incubation 120 min; marked values are geometric means of n = 2-6; read-out: IC50 OX1
human orexin-2 receptor = human orexin-2 receptor (Homo sapiens (Human), UniProt O43614); test: as above; format: cell-based; conditions: CHO cells, 3 nM orexin-A, compound incubation 120 min; marked values are geometric means of n = 2-6; read-out: IC50 OX2
human orexin-2 receptor, sequence (O43614 whole entry): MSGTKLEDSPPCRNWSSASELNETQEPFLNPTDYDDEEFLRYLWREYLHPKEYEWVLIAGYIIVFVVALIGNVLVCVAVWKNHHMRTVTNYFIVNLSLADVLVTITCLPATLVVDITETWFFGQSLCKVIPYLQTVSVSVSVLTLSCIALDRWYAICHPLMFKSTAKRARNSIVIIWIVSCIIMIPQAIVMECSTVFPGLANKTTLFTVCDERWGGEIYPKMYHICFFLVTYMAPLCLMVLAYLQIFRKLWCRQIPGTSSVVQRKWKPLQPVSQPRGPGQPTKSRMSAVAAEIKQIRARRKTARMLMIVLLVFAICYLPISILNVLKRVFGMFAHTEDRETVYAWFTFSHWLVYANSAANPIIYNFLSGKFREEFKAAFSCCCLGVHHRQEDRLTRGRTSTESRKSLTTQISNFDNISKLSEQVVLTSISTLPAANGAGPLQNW

human orexin-1 receptor, sequence (O43613 whole entry): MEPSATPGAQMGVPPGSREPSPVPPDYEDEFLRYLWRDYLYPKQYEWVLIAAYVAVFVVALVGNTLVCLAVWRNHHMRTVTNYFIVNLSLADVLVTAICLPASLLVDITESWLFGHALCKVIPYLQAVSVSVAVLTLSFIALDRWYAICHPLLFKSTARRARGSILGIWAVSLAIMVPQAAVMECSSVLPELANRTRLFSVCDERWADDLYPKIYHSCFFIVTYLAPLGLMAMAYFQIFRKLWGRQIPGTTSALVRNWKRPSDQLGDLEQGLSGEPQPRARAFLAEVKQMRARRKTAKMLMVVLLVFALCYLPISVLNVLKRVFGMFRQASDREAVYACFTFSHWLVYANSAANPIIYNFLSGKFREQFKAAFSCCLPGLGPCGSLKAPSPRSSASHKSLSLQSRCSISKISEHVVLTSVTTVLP

## COc1cccc(OC)c1C1CCCC(=O)N1Cc1cnc(-c2ccccc2)s1 (stereo not drawn) [Example 21, 6-(2,6-dimethoxyphenyl)-1-((2-phenylthiazol-5-yl)methyl)piperidin-2-one]
Human orexin-1 receptor
  IC50: 951 nM
Human orexin-2 receptor
  IC50: 366 nM

## COc1cccc(OC)c1C1CCCC(=O)N1Cc1cc(-c2ccccc2)ccn1 (stereo not drawn) [Example 22, 6-(2,6-dimethoxyphenyl)-1-((4-phenylpyridin-2-yl)methyl)piperidin-2-one]
Human orexin-1 receptor
  IC50: 166 nM
Human orexin-2 receptor
  IC50: 131 nM

## COc1cccc(OC)c1C1CCCC(=O)N1Cc1cccc(-n2cncn2)c1 (stereo not drawn) [Example 23, 1-(3-(1H-1,2,4-triazol-1-yl)benzyl)-6-(2,6-dimethoxyphenyl)piperidin-2-one]
Human orexin-1 receptor
  IC50: 312 nM
Human orexin-2 receptor
  IC50: 471 nM

## COc1cccc(OC)c1C1CCCC(=O)N1Cc1cccc(N2CCCC2)c1 (stereo not drawn) [Example 24, 6-(2,6-dimethoxyphenyl)-1-(3-(pyrrolidin-1-yl)benzyl)piperidin-2-one]
Human orexin-1 receptor
  IC50: 22 nM
Human orexin-2 receptor
  IC50: 31 nM

## COc1cccc(OC)c1C1CCCC(=O)N1Cc1cc(-c2ccccc2)on1 (stereo not drawn) [Example 25, 6-(2,6-dimethoxyphenyl)-1-((5-phenylisoxazol-3-yl)methyl)piperidin-2-one]
Human orexin-1 receptor
  IC50: 688 nM
Human orexin-2 receptor
  IC50: 902 nM

## COc1cccc(OC)c1C1CCCC(=O)N1Cc1cnn(-c2ccccc2)c1 (stereo not drawn) [Example 26, 6-(2,6-dimethoxyphenyl)-1-((1-phenyl-1H-pyrazol-4-yl)methyl)piperidin-2-one]
Human orexin-1 receptor
  IC50: 167 nM
Human orexin-2 receptor
  IC50: 115 nM

## COc1cccc(OC)c1C1CCCC(=O)N1Cc1cccc(-n2ccnc2)c1 (stereo not drawn) [Example 27, 1-(3-(1H-imidazol-1-yl)benzyl)-6-(2,6-dimethoxyphenyl)piperidin-2-one]
Human orexin-1 receptor
  IC50: 136 nM
Human orexin-2 receptor
  IC50: 181 nM

## COc1cccc(OC)c1C1CCCC(=O)N1Cc1cccc(N2CCCCC2)n1 (stereo not drawn) [Example 28, 6-(2,6-dimethoxyphenyl)-1-((6-(piperidin-1-yl)pyridin-2-yl)methyl)piperidin-2-one]
Human orexin-1 receptor
  IC50: 21 nM
Human orexin-2 receptor
  IC50: 11 nM

## COc1cccc(OC)c1C1CCCC(=O)N1Cc1cccc(-c2ncccn2)c1 (stereo not drawn) [Example 29, 6-(2,6-dimethoxyphenyl)-1-(3-(pyrimidin-2-yl)benzyl)piperidin-2-one]
Human orexin-1 receptor
  IC50: 14 nM
Human orexin-2 receptor
  IC50: 28 nM

## COc1cccc(OC)c1C1CCCC(=O)N1Cc1ccc2oc3ccccc3c2c1 (stereo not drawn) [Example 30, 1-(dibenzo[b,d]furan-2-ylmethyl)-6-(2,6-dimethoxyphenyl)piperidin-2-one]
Human orexin-1 receptor
  IC50: 2 nM
Human orexin-2 receptor
  IC50: 4 nM

## COc1cccc(OC)c1C1CCCC(=O)N1Cc1nc2ccccc2s1 (stereo not drawn) [Example 31, 1-(benzo[d]thiazol-2-ylmethyl)-6-(2,6-dimethoxyphenyl)piperidin-2-one]
Human orexin-1 receptor
  IC50: 941 nM
Human orexin-2 receptor
  IC50: 858 nM

## COc1cccc(OC)c1C1CCCC(=O)N1Cc1ccc2c(c1)c1ccccc1n2C (stereo not drawn) [Example 32, 6-(2,6-dimethoxyphenyl)-1-((9-methyl-9H-carbazol-3-yl)methyl)piperidin-2-one]
Human orexin-1 receptor
  IC50: 50 nM
Human orexin-2 receptor
  IC50: 132 nM

## COc1cccc(OC)c1C1CCCC(=O)N1Cc1cccc(-c2noc(C)n2)c1 (stereo not drawn) [Example 33, 6-(2,6-dimethoxyphenyl)-1-(3-(5-methyl-1,2,4-oxadiazol-3-yl)benzyl)piperidin-2-one]
Human orexin-1 receptor
  IC50: 39 nM
Human orexin-2 receptor
  IC50: 50 nM

## COc1cccc(OC)c1C1CCCC(=O)N1Cc1ccnc(N2CCCC2)c1 (stereo not drawn) [Example 34, 6-(2,6-dimethoxyphenyl)-1-((2-(pyrrolidin-1-yl)pyridin-4-yl)methyl)piperidin-2-one]
Human orexin-1 receptor
  IC50: 1050 nM
Human orexin-2 receptor
  IC50: 2060 nM

## COc1cccc(OC)c1C1CCCC(=O)N1Cc1csc(-c2ccccc2)n1 (stereo not drawn) [Example 35, 6-(2,6-dimethoxyphenyl)-1-((2-phenylthiazol-4-yl)methyl)piperidin-2-one]
Human orexin-1 receptor
  IC50: 28 nM
Human orexin-2 receptor
  IC50: 5 nM

## COc1cccc(OC)c1C1CCCC(=O)N1Cc1ccnc(Br)c1 (stereo not drawn) [Example 36, 1-((2-bromopyridin-4-yl)methyl)-6-(2,6-dimethoxyphenyl)piperidin-2-one]
Human orexin-1 receptor
  IC50: 1570 nM
Human orexin-2 receptor
  IC50: 1150 nM

## COc1cccc(OC)c1C1CCCC(=O)N1Cc1cccc(-c2ccccn2)c1F (stereo not drawn) [Example 37, 6-(2,6-dimethoxyphenyl)-1-(2-fluoro-3-(pyridin-2-yl)benzyl)piperidin-2-one]
Human orexin-1 receptor
  IC50: 72 nM
Human orexin-2 receptor
  IC50: 64 nM

## COc1cccc(OC)c1C1CCCC(=O)N1Cc1cccc(-c2ccccn2)n1 (stereo not drawn) [Example 38, 1-([2,2′-bipyridin]-6-ylmethyl)-6-(2,6-dimethoxyphenyl)piperidin-2-one]
Human orexin-1 receptor
  IC50: 153 nM
Human orexin-2 receptor
  IC50: 87 nM

## COc1cccc(OC)c1C1CCCC(=O)N1Cc1cccc(-c2nccs2)n1 (stereo not drawn) [Example 39, 6-(2,6-dimethoxyphenyl)-1-((6-(thiazol-2-yl)pyridin-2-yl)methyl)piperidin-2-one]
Human orexin-1 receptor
  IC50: 179 nM
Human orexin-2 receptor
  IC50: 147 nM

## COc1cccc(OC)c1C1CCCC(=O)N1Cc1cc(-c2ccccn2)ccc1F (stereo not drawn) [Example 40, 6-(2,6-dimethoxyphenyl)-1-(2-fluoro-5-(pyridin-2-yl)benzyl)piperidin-2-one]
Human orexin-1 receptor
  IC50: 75 nM
Human orexin-2 receptor
  IC50: 696 nM

## COc1cccc(OC)c1C1CCCC(=O)N1Cc1ccc(F)c(-c2ccccn2)c1 (stereo not drawn) [Example 41, 6-(2,6-dimethoxyphenyl)-1-(4-fluoro-3-(pyridin-2-yl)benzyl)piperidin-2-one]
Human orexin-1 receptor
  IC50: 18 nM
Human orexin-2 receptor
  IC50: 26 nM

## COc1cccc(OC)c1C1CCCC(=O)N1Cc1cccc(-c2cncs2)c1 (stereo not drawn) [Example 42, 6-(2,6-dimethoxyphenyl)-1-(3-(thiazol-5-yl)benzyl)piperidin-2-one]
Human orexin-1 receptor
  IC50: 25 nM
Human orexin-2 receptor
  IC50: 17 nM

## COc1cccc(OC)c1C1CCCC(=O)N1Cc1cccc(-c2ncc(C)s2)c1 (stereo not drawn) [Example 43, 6-(2,6-dimethoxyphenyl)-1-(3-(5-methylthiazol-2-yl)benzyl)piperidin-2-one]
Human orexin-1 receptor
  IC50: 6 nM
Human orexin-2 receptor
  IC50: 6 nM

## COc1cccc(OC)c1C1CCCC(=O)N1Cc1cccc(-n2nccn2)c1 (stereo not drawn) [Example 44, 1-(3-(2H-1,2,3-triazol-2-yl)benzyl)-6-(2,6-dimethoxyphenyl)piperidin-2-one]
Human orexin-1 receptor
  IC50: 14 nM
Human orexin-2 receptor
  IC50: 19 nM

## COc1cccc(OC)c1C1CCCC(=O)N1Cc1cccc(-c2cscn2)c1 (stereo not drawn) [Example 45, 6-(2,6-dimethoxyphenyl)-1-(3-(thiazol-4-yl)benzyl)piperidin-2-one]
Human orexin-1 receptor
  IC50: 12 nM
Human orexin-2 receptor
  IC50: 17 nM

## COc1cccc(OC)c1C1CCCC(=O)N1Cc1cccc(-n2ccnn2)c1 (stereo not drawn) [Example 46, 1-(3-(1H-1,2,3-triazol-1-yl)benzyl)-6-(2,6-dimethoxyphenyl)piperidin-2-one]
Human orexin-1 receptor
  IC50: 440 nM
Human orexin-2 receptor
  IC50: 239 nM

## COc1cccc(OC)c1C1CCCC(=O)N1Cc1ccc2nc(C)sc2c1 (stereo not drawn) [Example 47, 6-(2,6-dimethoxyphenyl)-1-((2-methylbenzo[d]thiazol-6-yl)methyl)piperidin-2-one]
Human orexin-1 receptor
  IC50: 187 nM
Human orexin-2 receptor
  IC50: 165 nM

## COc1cccc(OC)c1C1CCCC(=O)N1Cc1cc(-c2ccccn2)ccc1Cl (stereo not drawn) [Example 48, 1-(2-chloro-5-(pyridin-2-yl)benzyl)-6-(2,6-dimethoxyphenyl)piperidin-2-one]
Human orexin-1 receptor
  IC50: 169 nM
Human orexin-2 receptor
  IC50: 625 nM

## COc1cccc(OC)c1C1CCCC(=O)N1Cc1cc(Cl)cc(-c2ccccn2)c1 (stereo not drawn) [Example 49, 1-(3-chloro-5-(pyridin-2-yl)benzyl)-6-(2,6-dimethoxyphenyl)piperidin-2-one]
Human orexin-1 receptor
  IC50: 28 nM
Human orexin-2 receptor
  IC50: 11 nM

## COc1cccc(OC)c1C1CCCC(=O)N1Cc1ccnc(-c2ccccn2)c1 (stereo not drawn) [Example 50, 1-([2,2′-bipyridin]-4-ylmethyl)-6-(2,6-dimethoxyphenyl)piperidin-2-one]
Human orexin-1 receptor
  IC50: 39 nM
Human orexin-2 receptor
  IC50: 119 nM

## COc1cccc(OC)c1C1CCCC(=O)N1Cc1ccnc(-n2cccn2)c1 (stereo not drawn) [Example 52, 1-((2-(1H-pyrazol-1-yl)pyridin-4-yl)methyl)-6-(2,6-dimethoxyphenyl)piperidin-2-one]
Human orexin-1 receptor
  IC50: 14 nM
Human orexin-2 receptor
  IC50: 80 nM

## COc1ccnc(OC)c1C1CCCC(=O)N1Cc1cccc(-c2nccs2)c1 (stereo not drawn) [Example 53, 6-(2,4-dimethoxypyridin-3-yl)-1-(3-(thiazol-2-yl)benzyl)piperidin-2-one]
Human orexin-1 receptor
  IC50: 33 nM
Human orexin-2 receptor
  IC50: 22 nM

## COc1ccnc(OC)c1C1CCCC(=O)N1Cc1cccc(-c2csc(C)n2)c1 (stereo not drawn) [Example 54, 6-(2,4-dimethoxypyridin-3-yl)-1-(3-(2-methylthiazol-4-yl)benzyl)piperidin-2-one]
Human orexin-1 receptor
  IC50: 15 nM
Human orexin-2 receptor
  IC50: 13 nM

## COc1ccnc(OC)c1C1CCCC(=O)N1Cc1cccc(-c2ccccn2)c1 (stereo not drawn) [Example 55, 6-(2,4-dimethoxypyridin-3-yl)-1-(3-(pyridin-2-yl)benzyl)piperidin-2-one]
Human orexin-1 receptor
  IC50: 96 nM
Human orexin-2 receptor
  IC50: 95 nM

## COc1ccnc(OC)c1C1CCCC(=O)N1Cc1csc(-c2ccccc2)n1 (stereo not drawn) [Example 56, 6-(2,4-dimethoxypyridin-3-yl)-1-((2-phenylthiazol-4-yl)methyl)piperidin-2-one]
Human orexin-1 receptor
  IC50: 141 nM
Human orexin-2 receptor
  IC50: 6 nM

## COc1ccnc(OC)c1C1CCCC(=O)N1Cc1ccc2oc3ccccc3c2c1 (stereo not drawn) [Example 57, 1-(dibenzo[b,d]furan-2-ylmethyl)-6-(2,4-dimethoxypyridin-3-yl)piperidin-2-one]
Human orexin-1 receptor
  IC50: 5 nM
Human orexin-2 receptor
  IC50: 3 nM

## COc1ccnc(OC)c1C1CCCC(=O)N1Cc1ccc2nc(C)sc2c1 (stereo not drawn) [Example 58, 6-(2,4-dimethoxypyridin-3-yl)-1-((2-methylbenzo[d]thiazol-6-yl)methyl)piperidin-2-one]
Human orexin-1 receptor
  IC50: 2560 nM
Human orexin-2 receptor
  IC50: 1530 nM

## COc1ccnc(OC)c1C1CCCC(=O)N1Cc1ccc(F)c(-c2ccccn2)c1 (stereo not drawn) [Example 59, 6-(2,4-dimethoxypyridin-3-yl)-1-(4-fluoro-3-(pyridin-2-yl)benzyl)piperidin-2-one]
Human orexin-1 receptor
  IC50: 207 nM
Human orexin-2 receptor
  IC50: 135 nM

## COc1ccnc(OC)c1C1CCCC(=O)N1Cc1cccc(-c2ccccc2)c1 (stereo not drawn) [Example 60, 1-([1,1′-biphenyl]-3-ylmethyl)-6-(2,4-dimethoxypyridin-3-yl)piperidin-2-one]
Human orexin-1 receptor
  IC50: 39 nM
Human orexin-2 receptor
  IC50: 34 nM
